{"source": "patent US20210321638A1", "about": "“ANIMAL FEED AND METHODS TO PROVIDE SUCH FEED” (Nutreco Nederland B.V., priority 2016, published 2021)", "key": {"[1]": {"system": "Salmonella typhimurium", "test": "in vitro adhesion of bacteria to coated 96-well plate, time to onset OD600", "format": "cell-based", "conditions": "Table 4, Example 4; total amount of agents the same in all experiments; control 6.95", "experimental": "Example 1 describes an in vitro model study for assessing the effect of ABM mycelium on bacterial adhesion. In this method the adhesion of Salmonella typhimurium to ABM mycelium is assessed.\n(§1) Use was made of a 96-well plate on which the ABM mycelium was coated. For this, the ABM mycelium (in this and each case below a fermented rye product was actually used, in which product the amount of ABM mycelium was about 15% w/w) was suspended in PBS to a final concentration of 1% (w/v) and mixed thoroughly. Subsequently the suspension was centrifuged to remove insoluble material. Thereafter, the supernatant was used for coating the wells of the microtiter plate. For the adhesion assessment, a Salmonella typhimurium suspension was added to the microtiter plate. The plate was then incubated for 30 minutes and after this incubation step washed with PBS. Subsequently growth medium was added to the wells and the time to onset OD600 value was determined. The optical density (OD) measurement was used as a tool to compare numbers of adhered bacteria to the coated wells of the 96-well plate with different compounds. The initial cell density of adhered bacteria correlates with the time-dependent detection of the growth by optical density measurement.\nIn a second in vitro study, the test was repeated, and additionally the effect on Salmonella enteritidis and E. coli was measured. […]"}, "[2]": {"system": "E. coli", "test": "in vitro adhesion of bacteria to coated 96-well plate, time to onset OD600", "format": "cell-based, Escherichia coli", "source_text": "as §1\nIn a second in vitro study, the test was repeated, and additionally the effect on Salmonella enteritidis and E. coli was measured. Also, the amount of ABM mycelium was used in the full amount (see above; denoted “100%”), half of this amount (“50%”) and a quarter of this amount (“25%”). […]"}}, "data": [{"compound": "OC[C@H]1O[C@@H](O[C@H]2[C@H](O)[C@H](O)C(O)O[C@@H]2CO)[C@@H](O)[C@@H](O)[C@@H]1O", "note": "(stereo partly drawn) [β-1,4-mannobiose]", "values": [{"measurement": "time to onset OD600, S. typhimurium", "setting": "[1]", "value": 5.90, "unit": "h"}, {"measurement": "effect on the adhesion of E. coli / onset OD600, in words", "setting": "[2]; Example 4, compared to the control and β-1,4-mannobiose alone", "value": "does not have an effect"}, {"measurement": "time to onset OD600, E. coli", "setting": "[2]; Table 4, Example 4, total amount of agents the same in all experiments, control 7.10", "value": 7.30, "unit": "h"}]}]}
